What was measured:
hOB SFRP mRNA = experiment: Northern blot analysis of hOB SFRP mRNA expression; assay type: cell-based, human; conditions: for regulation of SFRP mRNA: SaOS-2 human osteosarcoma cells
Description: The hOB SFRP gene fragment was identified using RADE (rapid analysis of differential expression) technology as described by Shiue 1997 Drug Develop. Res. 41: 142–159, the whole of which is incorporated herein. Three hOB cell lines (hOB-03-C5, hOB-03-CE6 and hOB-01-C1), representing three distinct stages of differentiation (proliferative, mature and preosteocytic, respectively) were used to isolate and identify SFRP. The hOB cell lines were established and cultured as previously described (Bodine et al. 1996 J. Bone Miner. Res. 11: 806–819; Bodine et al. 1996 Endocrinology 137: 4592–4604; Bodine et al. 1997 J. Cell. Biochem. 65: 368–387). […] However, in contrast to osteosarcoma cells (Stein and Lian 1993 Endocrine Rev. 14: 424–442), the hOB cell lines were faithful to the proliferation/differentiation relationship at the nonpermissive temperature (>37° C.) when the T-antigen mutant is inactivated. The cell lines were seeded into 150 mm dishes at ˜40,000 cells/cm^2 with growth medium [D-MEM/F-12 containing 10% (v/v) heat-inactivated fetal bovine serum (FBS), 1% (v/v) Penicillin-Streptomycin and 2 mM GlutaMAX-1] and incubated overnight at 34° C. The next day, the medium was removed, the cells were rinsed with phosphate-buffered saline (PBS), 20 ml of serum-free medium was added to the dishes [phenol red-free D-MEM/F-12 (Gibco/BRL) containing 0.25% (w/v) bovine serum albumin (BSA, Pentex crystallized, Bayer), 1% (v/v) Penicillin-Streptomycin, 2 mM GlutaMAX-1, […] ascorbate-2-phosphate (Wako), and 10 nM menadione sodium bisulfite (vitamin K3)], and the dishes were incubated at 39° C. for 24 hr. The next day, the medium was removed and the cells were treated at 39° C. for an additional 24 hr with 20 ml of fresh serum-free medium containing either vehicle (Control), 8 nM human parathyroid hormone 1–34 (PTH), 100 nM prostaglandin E2 (PGE2) or 0.1 nM human transforming growth factor-β1 (TGF-β1). PTH, PGE2 and TGF-β1 are known osteogenic agents (Whitfield and Morley 1995 Trends Pharmaceut. Sci. 16:382–386; Jee and Ma 1997 Bone 21:297–304; Centrella et al. 1994 Endocrine Rev. 15:27–39). After the treatment period, the dishes were rinsed with PBS and total cellular RNA was isolated from the nontreated and treated cells using TRIzol according to the manufacturers instructions (GibcoBRL). RADE was then performed with the isolated RNA samples as above; the regulated gene fragments were identified, cloned and sequenced. These experiments identified a total of 82 differentially expressed genes. A BLAST (basic local alignment search tool) search of the public data bases was performed on the RADE-obtained gene fragments; one of the gene fragments was highly homologous to mouse SFRP-1. This gene fragment was identified during RADE using the following primer pair: 5′-[…]-3′ (HT11A)3′ end (reverse primer) and 5′-[…]-3′ (H-AP1) 5′ end (forward primer), which sequences are SEQ ID NO 11 and SEQ ID NO 12, respectively. The expression and regulation of the gene fragment having homology to mouse cDNA SFRP-1 was confirmed by Northern blot analysis.
In order to confirm the regulation of hOB SFRP gene expression by different osteogenic agents (i.e., the DNA fragment identified in Example 1, above), the hOB cell lines were treated with PTH, PGE2, and TGF-β1; RNA was then isolated for Northern hybridizations. The experiments were performed as follows. The hOB cell lines were seeded into 150 mm dishes and treated as described in Example 1, except that polyA+ RNA was isolated from total cellular RNA using Oligotex mRNA maxi kits as described by the manufacturer (Qiagen). Northern blot analysis was performed using either the excised RADE hOB SFRP gene fragment, the cloned hOB SFRP gene fragment or the cloned full-length hOB SFRP cDNA as a ^32P-labeled probe (as described in Bodine et al. 1996 J. Bone Miner. Res. 11: 806–819, which is incorporated herein). Each of these probes detected a 4.4–4.6 kb message in the hOB cells. […]

hOB SFRP gene fragment = experiment: RADE (differential-display PCR) of hOB cell lines treated with osteogenic agents; assay type: cell-based, human; conditions: 24 hr
Description: It can also be seen that the hOB-01-C1 cells express high basal levels of this gene.
The hOB SFRP gene fragment was identified using RADE (rapid analysis of differential expression) technology as described by Shiue 1997 Drug Develop. Res. 41: 142–159, the whole of which is incorporated herein. Three hOB cell lines (hOB-03-C5, hOB-03-CE6 and hOB-01-C1), representing three distinct stages of differentiation (proliferative, mature and preosteocytic, respectively) were used to isolate and identify SFRP. The hOB cell lines were established and cultured as previously described (Bodine et al. 1996 J. Bone Miner. Res. 11: 806–819; Bodine et al. 1996 Endocrinology 137: 4592–4604; Bodine et al. 1997 J. Cell. Biochem. 65: 368–387). […] However, in contrast to osteosarcoma cells (Stein and Lian 1993 Endocrine Rev. 14: 424–442), the hOB cell lines were faithful to the proliferation/differentiation relationship at the nonpermissive temperature (>37° C.) when the T-antigen mutant is inactivated. The cell lines were seeded into 150 mm dishes at ˜40,000 cells/cm^2 with growth medium [D-MEM/F-12 containing 10% (v/v) heat-inactivated fetal bovine serum (FBS), 1% (v/v) Penicillin-Streptomycin and 2 mM GlutaMAX-1] and incubated overnight at 34° C. […]

EC50 (hOB SFRP mRNA; hOB-03-C5 cells, increasing concentrations, 24 hr, read-out: EC50 for up-regulation of hOB SFRP mRNA expression) [nM]	EC50 for up-regulation of hOB SFRP mRNA, times higher than in the hOB-03-C5 cells (hOB SFRP mRNA; hOB-03-CE6 cells)	Compound	regulation of SFRP mRNA (hOB SFRP mRNA; 24 hr, 37° C.)	time course of hOB SFRP mRNA expression (hOB SFRP mRNA; hOB-03-C5 cells, 100 nM, 2 to 24 hr)	hOB SFRP mRNA expression (hOB SFRP mRNA; hOB-03-C5 cells, 100 nM, 24 hr)	hOB SFRP mRNA expression (hOB SFRP mRNA; maturation-stage hOB-03-CE6 cells)	up-regulation of steady-state SFRP mRNA levels (hOB SFRP mRNA; normal hOB cells (explant cultures), 100 nM, 24 hr, 37° C.) [fold]	regulation of hOB SFRP gene fragment (hOB SFRP gene fragment; hOB-03-C5 and hOB-03-CE6 cell lines, 100 nM)	suppression of hOB SFRP mRNA levels (hOB SFRP mRNA; hOB-01-C1 cells, 100 pM, 24 hr) [%]	regulation of hOB SFRP gene fragment (hOB SFRP gene fragment; pre-osteocytic hOB-01-C1 cell line, 0.1 nM)
~8	about 10 times	CCCCC[C@H](O)/C=C/[C@H]1[C@H](O)CC(=O)[C@@H]1C/C=C\CCCC(=O)O [PGE2, prostaglandin E2]	not regulated	up-regulated hOB SFRP mRNA expression in a time-dependent manner	completely up-regulated	up-regulation	~1.3	strongly up-regulated	–	–
–	–	human transforming growth factor-β1 [TGF-β1]	not regulated	–	–	–	–	–	80	down-regulated

— US7098372B1, “Pharmaceutical compositions and methods of using secreted frizzled related protein” (Wyeth, priority 1999, dated 2006)
